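A five-concentration, 48-hour dose response in 96-well plates underlies each endpoint, interpolated linearly between surrounding concentrations. Abbreviation: GI50, concentration required for 50% inhibition of growth.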 Active and inactive are the calls of the source. Cut-off read from the data, not from the text of the source: active = GI50 up to about 1.1 µM and inactive = higher.
Tests used:
Experiment in all cases: inhibition of tumour cell growth, NCI panel, 48 h
CAKI-1 = tested on: CAKI-1
CCRF-CEM = tested on: CCRF-CEM
HL-60 = tested on: HL-60
HT-29 = tested on: HT-29
Hs-578T = tested on: Hs-578T
K562 = tested on: K562
M14 = tested on: M14
Malme-3M = tested on: Malme-3M
OVCAR-5 = tested on: OVCAR-5
OVCAR-8 = tested on: OVCAR-8
RXF 393 = tested on: RXF 393
SN12C = tested on: SN12C
SNB-19 = tested on: SNB-19
SW-620 = tested on: SW-620
TK-10 = tested on: TK-10
U-251 = tested on: U-251
UACC-62 = tested on: UACC-62
UO-31 = tested on: UO-31
MOLT-4 = tested on: MOLT-4

Measured: GI50

Cc1ccc(/N=N/c2c(O)c3ccccc3[nH]c2=O)c(S(=O)(=O)N(C)C)c1
inactive: CAKI-1 > 100 µM | CCRF-CEM > 100 µM | HL-60 > 100 µM | HT-29 > 100 µM | Hs-578T > 100 µM | K562 > 100 µM | M14 > 100 µM | Malme-3M > 100 µM | OVCAR-5 > 100 µM | OVCAR-8 > 100 µM | RXF 393 > 100 µM | SN12C > 100 µM | SNB-19 > 100 µM | SW-620 > 100 µM | TK-10 > 100 µM | U-251 > 100 µM | UACC-62 > 100 µM | UO-31 > 100 µM

CC(=O)OC1COC(Nc2nc(NCc3ccccc3)n(C)c(=O)c2N=O)C(OC(C)=O)C1OC(C)=O (configuration not stated)
inactive: CAKI-1 > 10 µM | CCRF-CEM > 10 µM | HL-60 > 10 µM | HT-29 > 10 µM | Hs-578T > 10 µM | K562 > 10 µM | M14 > 10 µM | MOLT-4 > 10 µM | Malme-3M > 10 µM | OVCAR-5 > 10 µM | OVCAR-8 > 10 µM | RXF 393 > 10 µM | SN12C > 10 µM | SNB-19 > 10 µM | SW-620 > 10 µM | TK-10 > 10 µM | U-251 > 10 µM | UACC-62 > 10 µM

CN(C)CCCNC1=C(Cl)C(=O)c2c(O)ccc(O)c2C1=O
inactive: CAKI-1 > 10 µM | CCRF-CEM 2.47 µM | HT-29 2.17 µM | Hs-578T 1.28 µM | K562 3.61 µM | M14 1.51 µM | MOLT-4 2.58 µM | Malme-3M 1.84 µM | OVCAR-5 1.59 µM | OVCAR-8 3.27 µM | SN12C 1.81 µM | SNB-19 1.94 µM | SW-620 1.82 µM | TK-10 3.84 µM | U-251 1.74 µM | UACC-62 1.59 µM | UO-31 6.04 µM

Cc1ccc(S(=O)(=O)NC(=O)Nc2cc(Cl)c(S(N)(=O)=O)cc2S(N)(=O)=O)cc1
inactive: CAKI-1 > 100 µM | CCRF-CEM > 100 µM | HL-60 > 100 µM | HT-29 > 100 µM | Hs-578T > 100 µM | K562 > 100 µM | M14 > 100 µM | MOLT-4 > 100 µM | Malme-3M > 100 µM | OVCAR-5 > 100 µM | OVCAR-8 > 100 µM | RXF 393 > 100 µM | SN12C > 100 µM | SNB-19 > 100 µM | SW-620 > 100 µM | TK-10 > 100 µM | U-251 > 100 µM | UACC-62 > 100 µM | UO-31 > 100 µM

CCOc1ccc2nc3nc(O)nc(C)c3c(NC(C)(CO)CO)c2c1
inactive: CAKI-1 > 100 µM | CCRF-CEM > 100 µM | HL-60 > 100 µM | HT-29 > 100 µM | Hs-578T > 100 µM | K562 > 100 µM | M14 > 100 µM | MOLT-4 > 100 µM | Malme-3M > 100 µM | OVCAR-5 > 100 µM | OVCAR-8 > 100 µM | RXF 393 > 100 µM | SN12C > 100 µM | SNB-19 > 100 µM | SW-620 > 100 µM | TK-10 > 100 µM | U-251 > 100 µM | UACC-62 > 100 µM | UO-31 > 100 µM

O=C(O)c1cc(C(=O)C(=O)c2cc(C(=O)O)c(O)c3ccccc23)c2ccccc2c1O
inactive: CAKI-1 > 100 µM | HT-29 > 100 µM | Hs-578T > 100 µM | K562 > 100 µM | M14 > 100 µM | Malme-3M > 100 µM | OVCAR-5 > 100 µM | OVCAR-8 > 100 µM | RXF 393 > 100 µM | SN12C > 100 µM | SNB-19 > 100 µM | SW-620 > 100 µM | TK-10 > 100 µM | U-251 > 100 µM | UACC-62 > 100 µM | UO-31 > 100 µM
